The source of these data is paper PMC6284057, “Combined Antibacterial Effects of Goat Cathelicidins With Different Mechanisms of Action” (Frontiers in Microbiology, 2018).

≈ marks a conversion by molar mass, not a printed value. Where two headings read alike, the source gives them in different places.

The test system of one series is M. luteus B-1314. It counts as cell-based, Micrococcus luteus. Conditions: Mueller-Hinton broth, 10^6 CFU/ml, peptide diluted in 0.1% BSA, 37°C, 24 h, median of at least 3 experiments in triplicate. On the procedure: (§1) Antimicrobial assay was performed as described previously ([Panteleev et al., 2017b]). Briefly, mid-log phase bacterial test cultures were diluted with the 2× Mueller-Hinton broth (MH, Sigma) supplemented with 1.8% NaCl or without it so that to reach a final cell concentration of 10^6 CFU/ml. 50 μl aliquots of the obtained bacterial suspension were added to 50 μl of the peptide solutions serially diluted with 0.1% water solution of bovine serum albumin (BSA) in 96-well flat-bottom polystyrene microplates (Eppendorf #0030730011). After incubation at 37°C and 900 rpm for 24 h the minimum inhibitory concentrations (MIC) were determined as the lowest peptide concentrations that prevented growth of a test microorganism observed as visible turbidity. The results were expressed as the median values determined on the basis of at least three independent experiments performed in triplicate.

The next series deals with B. subtilis B-886. The class given is cell-based, Bacillus subtilis. Conditions: Mueller-Hinton broth, 10^6 CFU/ml, 0.1% BSA, 37°C, 24 h, median of at least 3 experiments. The method, then: as §1
In the next series the test system is S. aureus 209P. The class given is cell-based, Staphylococcus aureus. Conditions: Mueller-Hinton broth, 10^6 CFU/ml, 0.1% BSA, 37°C, 24 h, median of at least 3 experiments. The method, then:
as §1

Another series relates to P. aeruginosa PAO1. It counts as cell-based, Pseudomonas aeruginosa. The conditions noted are these: Mueller-Hinton broth, 10^6 CFU/ml, 0.1% BSA, 37°C, 24 h, median of at least 3 experiments. On the procedure: as §1
The test system of series [1] is A. baumannii (XDR CI 2675). Nature of the series: microbe, parasite or virus in culture. The class given is cell-based, Acinetobacter baumannii. Conditions: read-out: Minimum inhibitory concentration. The method, then:
as §1

In another series the test system is K. pneumoniae (CI 287). The class given is cell-based, Klebsiella pneumoniae. The conditions noted are these: Mueller-Hinton broth, 10^6 CFU/ml, 0.1% BSA, 37°C, 24 h, median of at least 3 experiments. On the procedure: as §1
For a further series, the system named is E. coli C600. The class given is cell-based, Escherichia coli. Conditions: Mueller-Hinton broth, 10^6 CFU/ml, 0.1% BSA, 37°C, 24 h, median of at least 3 experiments. The method, then:
as §1

For another series, the system named is E. coli ML-35p. It counts as cell-based, Escherichia coli. The conditions noted are these: Mueller-Hinton broth, 10^6 CFU/ml, 0.1% BSA, 37°C, 24 h, median of at least 3 experiments. The method, then: as §1
Series [2] deals with all the cells tested (hRBC, HEF, HEK293T). Nature of the series: Hemolysis and cytotoxicity assay. It counts as cell-based, human. Conditions: positive control. On the procedure:
Hemolytic activity of the peptides was tested against the fresh suspension of human red blood cells (hRBC) using the hemoglobin release assay as described previously ([Panteleev et al., 2016]). Three experiments were performed with the hRBC from blood samples obtained from independent donors. The obtained data were represented as average means with standard deviations. The cytotoxicity of the peptides against HEK293T (transformed human embryonic kidney cells) and HEF (human embryonic fibroblasts) cell lines was studied using the colorimetric 3-(4,5-dimethylthiazol-2-yl)-2,5-diphenyltetrazolium bromide (MTT) dye reduction assay according to ([Panteleev and Ovchinnikova, 2017]). Three independent experiments were performed for each peptide. Half maximal inhibitory concentration (IC50) values were estimated as described previously ([Kuzmin et al., 2018]).

The test system of the next series is E. cloacae (XDR CI 4172). Nature of the series: microbe, parasite or virus in culture. The conditions noted are these: Enterobacter cloacae; Table S2, XDR clinical isolate; NaCl content of medium not stated; read-out: Minimum inhibitory concentration. The class given is cell-based, Enterobacter cloacae. On the procedure:
as §1

The next series deals with E. coli (XDR CI 1057). As to the kind of experiment: microbe, parasite or virus in culture. Conditions: Escherichia coli, read-out: Minimum inhibitory concentration. The class given is cell-based, Escherichia coli. On the procedure: as §1
The test system of series [3] is K. pneumoniae (XDR CI 1056). As to the kind of experiment: microbe, parasite or virus in culture. It counts as cell-based, Klebsiella pneumoniae. The conditions noted are these: Klebsiella pneumoniae; Table S2, XDR clinical isolate; NaCl content of medium not stated; read-out: Minimum inhibitory concentration. The method, then: as §1
Series [4] relates to P. aeruginosa (XDR CI 1049). Nature of the series: microbe, parasite or virus in culture. It counts as cell-based, Pseudomonas aeruginosa. The conditions noted are these: Pseudomonas aeruginosa; Table S2, XDR clinical isolate; NaCl content of medium not stated; read-out: Minimum inhibitory concentration. The method, then:
as §1

Series [5] deals with P. mirabilis (XDR CI 3423). Nature of the series: microbe, parasite or virus in culture. The class given is cell-based, Proteus mirabilis. The conditions noted are these: Proteus mirabilis; Table S2, XDR clinical isolate; NaCl content of medium not stated; read-out: Minimum inhibitory concentration. The method, then: as §1
Series [6] deals with in vitro translation of EGFP, E. coli BL21 Star (DE3) cell lysate. Nature of the series: Cell-free protein expression assay (EGFP). The class given is biochemical, Escherichia coli. The conditions noted are these: EGFP fluorescence, 1.5 h, 30°C. The method, then:
The cell lysate used for translation inhibition assay was prepared using the E. coli BL21 Star (DE3) cell culture grown at 30°C in the 2x YTPG liquid medium (1% yeast extract, 1.6% tryptone, 0.5% NaCl, 22 mM NaH2PO4, 40 mM Na2HPO4, 0.1 M glucose). The chromosome of DE3 strains contains a gene encoding T7 RNA polymerase under control of the lacUV5 promoter. The bacterial culture was grown to OD600 0.8–1.0, then T7 RNA polymerase gene was induced by adding 0.2 mM IPTG. Bacteria were harvested at OD600 5.0–6.0 by centrifugation (3000 g, 30 min, 4°C). The bacterial pellet was washed three times by suspending it in four volumes of wash buffer (10 mM Tris-acetate buffer, pH 8.2, 60 mM potassium glutamate, 14 mM magnesium acetate, 1 mM DTT), then resuspended in one volume of the same buffer (1 ml per 1 g of wet cell mass) and disrupted by sonication at 5–15°C. The total cell lysate was centrifuged at 15000 g (30 min, 4°C). The supernatant was split into aliquots and stored at -70°C.
In order to investigate the effect of AMPs on the translation process, the peptides were added to a cell-free protein synthesis (CFPS) reaction mix with a plasmid encoding EGFP variant (F64L, S65T, Q80R, F99S, M153T, and V163A) under a control of the T7 promoter. The reaction mix consisted of the following components: 1.2 mM ATP, 0.8 mM UTP, 0.8 mM GTP, 0.8 mM CTP, 2 mM of each of 20 proteinogenic amino acids, 1.5 mM spermidine, 1 mM putrescine dihydrochloride, 0.06647 mM calcium folinate, 170 ng/ml tRNA from the E. coli MRE 600 strain, 0.33 mM NAD, 120 mM HEPES-KOH (pH 8.0), 10 mM ammonium glutamate, 175 mM potassium glutamate, 60 mM glucose, 15 mM magnesium glutamate, 2% PEG 8000, 25% E. coli BL21 Star (DE3) cell lysate, 10 ng/μl plasmid DNA. The reaction volume was 50 μl. […] Fluorescence of the sample without inhibitor was set as the 100% value. […] Fluorescence of the synthesized EGFP was measured with the microplate reader AF2200 (λExc = 488 nm, λEm = 510 nm). […] IC50 values were determined by interpolation from non-linear regression curves using the GraphPad Prism 6.0 software.

With `CC[C@H](C)[C@H](NC(=O)CN)C(=O)NCC(=O)N[C@@H](C)C(=O)N[C@H](C(=O)N[C@@H](CC(C)C)C(=O)N[C@@H](CCCCN)C(=O)N[C@H](C(=O)N[C@@H](CC(C)C)C(=O)N[C@H](C(=O)N[C@H](C(=O)NCC(=O)N[C@@H](CC(C)C)C(=O)N1CCC[C@H]1C(=O)N[C@@H](C)C(=O)N[C@@H](CC(C)C)C(=O)N[C@H](C(=O)N[C@@H](CO)C(=O)N[C@@H](Cc1c[nH]c2ccccc12)C(=O)N[C@H](C(=O)N[C@@H](CCCCN)C(=O)N[C@@H](CCCNC(=N)N)C(=O)N[C@@H](CCCCN)C(=O)N[C@@H](CCCNC(=N)N)C(=O)N[C@@H](CCC(N)=O)C(=O)N[C@@H](CCC(N)=O)C(N)=O)[C@@H](C)CC)[C@@H](C)CC)[C@@H](C)O)[C@@H](C)O)C(C)C)C(C)C` [Melittin, reference compound], the Minimum inhibitory concentration in the series on M. luteus B-1314 (0.9% NaCl) came to 0.5 µM (≈ 1.42 µg/mL); with M. luteus B-1314 (Without NaCl) it was 0.25 µM (≈ 0.712 µg/mL); with B. subtilis B-886 (0.9% NaCl), 0.5 µM (≈ 1.42 µg/mL); with B. subtilis B-886 (Without NaCl), 0.5 µM (≈ 1.42 µg/mL); with S. aureus 209P (0.9% NaCl), 16 µM (≈ 45.5 µg/mL); with S. aureus 209P (Without NaCl), 2 µM (≈ 5.69 µg/mL). Moreover, the Minimum inhibitory concentration stood at 8 µM (≈ 22.8 µg/mL) with P. aeruginosa PAO1 (0.9% NaCl); 4 µM (≈ 11.4 µg/mL) in the series with P. aeruginosa PAO1 (Without NaCl); 16 µM (≈ 45.5 µg/mL) in the series on K. pneumoniae (CI 287) (0.9% NaCl); 4 µM (≈ 11.4 µg/mL) in the series with K. pneumoniae (CI 287) (Without NaCl); 8 µM (≈ 22.8 µg/mL) in the series with E. coli C600 (0.9% NaCl); 4 µM (≈ 11.4 µg/mL) in the series on E. coli C600 (Without NaCl). Moreover, the Minimum inhibitory concentration in the series on E. coli ML-35p (0.9% NaCl) is 8 µM (≈ 22.8 µg/mL); with E. coli ML-35p (Without NaCl) it was 2 µM (≈ 5.69 µg/mL). For the same compound, the MIC in series [1] (0.9% NaCl, Mueller-Hinton broth, 10^6 CFU/ml, 0.1% BSA, 37°C, 24 h, median of at least 3 experiments) is 8 µM (≈ 22.8 µg/mL); in series [1] (Without NaCl, Mueller-Hinton broth, 10^6 CFU/ml, 0.1% BSA, 37°C, 24 h, median of at least 3 experiments), 2 µM (≈ 5.69 µg/mL). Also, the “concentrations that completely damaged all the cells tested” value in [2] was < 2500 nM.
`C[C@@H](O)[C@H]1C(=O)N2C(C(=O)O)=C(S[C@@H]3CN[C@H](C(=O)N(C)C)C3)[C@H](C)[C@H]12` [Meropenem, reference compound]: the MIC in [1] (Acinetobacter baumannii, Table S2, XDR clinical isolate, NaCl content of medium not stated) is 0.5 µM (≈ 0.192 µg/mL); in the series on E. cloacae (XDR CI 4172), 0.5 µM (≈ 0.192 µg/mL); with E. coli (XDR CI 1057), 0.125 µM (≈ 0.0479 µg/mL); in series [3] it was 16 µM (≈ 6.14 µg/mL); in [4], 64 µM (≈ 24.5 µg/mL); in [5], > 128 µM.
Turning to `[H]/N=C(/N)N[C@H]1[C@H](O)[C@@H](O)[C@H](O[C@@H]2O[C@@H](C)[C@](O)(C=O)[C@H]2O[C@@H]2O[C@@H](CO)[C@H](O)[C@@H](O)[C@@H]2NC)[C@@H](N/C(N)=N\[H])[C@@H]1O` [streptomycin], the “concentration of full inhibition of in vitro protein synthesis” value in [6] was > 1 µM. The concentration for half-maximal inhibition (IC50) in [6] (at least 3 independent experiments, read-out: IC50, inhibition of in vitro protein synthesis) is 200 nM.
Regarding KWCFRVCYRGICYRRCR [Tachyplesin-1], in [6], the “inhibition of protein biosynthesis, in words” value is reported as “comparable level of inhibition”.
